In patent US6455540B1, “Methods of use of quinolone compounds against anaerobic pathogenic bacteria” (priority 1999, dated 2002):
≈ marks a conversion by molar mass, not a printed value.

Columns and labels:
Assay in all cases: Agar dilution MIC
[1] = system: Actinomyces odontolyticus; assay type: cell-based; conditions: 10 isolates
[2] = system: Actinomyces israelii; assay type: cell-based; conditions: 6 isolates
[3] = system: Anaerobiospirillum thomasii; assay type: cell-based; conditions: 13 isolates
[4] = system: Anaerobiospirillum succiniciproducens; assay type: cell-based; conditions: 3 isolates
[5] = system: Bacteroides gracilis; assay type: cell-based, Bacteroides gracilis (Campylobacter gracilis); conditions: Campylobacter gracilis, 11 isolates
[6] = system: Bacteroides tectum; assay type: cell-based; conditions: 22 isolates
[7] = system: Bacteroides ureolyticus; assay type: cell-based; conditions: Campylobacter ureolyticus, 17 isolates
[8] = system: Bilophila wadsworthia; assay type: cell-based; conditions: Bilophila wadsworthia, 16 isolates, agar supplemented with pyruvate
[9] = system: Clostridium clostridioforme; assay type: cell-based; conditions: 11 isolates
[10] = system: Clostridium inocuum; assay type: cell-based, Clostridium innocuum; conditions: Clostridium, 11 isolates
[11] = system: Clostridium ramosum; assay type: cell-based; conditions: 10 isolates
[12] = system: Fusobacterium spp group 1; assay type: cell-based; conditions: 19 isolates
[13] = system: Fusobacterium spp. group 2; assay type: cell-based, Fusobacterium mortiferum, necrogenes, ulcerans; conditions: Fusobacterium, 12 isolates
[14] = system: Fusobacterium russii; assay type: cell-based
[15] = system: Fusobacterium varium; assay type: cell-based; conditions: Fusobacterium varium, 17 isolates
[16] = system: Peptostreptococcus asaccharolyticus; assay type: cell-based; conditions: 11 isolates
[17] = system: Peptostreptococcus magnus; assay type: cell-based; conditions: 13 isolates
[18] = system: Peptostreptococcus micros; assay type: cell-based; conditions: 12 isolates
[19] = system: Peptostreptococcus prevotii; assay type: cell-based; conditions: 9 isolates
[20] = system: Porphyromonas asaccharolyticus; assay type: cell-based, Porphyromonas asaccharolytica; conditions: 11 isolates
[21] = system: Porphyromonas canoris; assay type: cell-based; conditions: 10 isolates
[22] = system: Porphyromonas gingivalis; assay type: cell-based; conditions: 13 isolates
[23] = system: Porphyromonas macaccae; assay type: cell-based; conditions: 13 isolates
[24] = system: Porphyromonas spp.; assay type: cell-based, Porphyromonas cangingivalis, cansulci, circumdentaria, levii; conditions: 11 isolates
[25] = system: Prevotella bivia; assay type: cell-based; conditions: 21 isolates
[26] = system: Prevotella buccae-oris group; assay type: cell-based; conditions: 22 isolates
[27] = system: Prevotella heparinolytica; assay type: cell-based; conditions: 16 isolates
[28] = system: Prevotella intermedia; assay type: cell-based; conditions: 11 isolates
[29] = system: Prevotella melaninogenica; assay type: cell-based; conditions: 12 isolates
[30] = system: Prevotella denticola/loeschii group; assay type: cell-based; conditions: 6 isolates
[31] = system: Veillonella spp.; assay type: cell-based; conditions: Veillonella, 24 isolates
[32] = read-out: Minimal Inhibitory Concentration 90% (MIC90)
[33] = read-out: Minimal Inhibitory Concentration 50% (MIC50)
[34] = Porphyromonas, read-out: Minimal Inhibitory Concentration 50% (MIC50)
[35] = Porphyromonas, read-out: Minimal Inhibitory Concentration 90% (MIC90)

MIC90 ([1]; Schaalia odontolytica, read-out: Minimal Inhibitory Concentration 90% (MIC90)): 4 µg/mL (≈ 9.61 µM)
MIC50 ([1]; Schaalia odontolytica, read-out: Minimal Inhibitory Concentration 50% (MIC50)): 4 µg/mL (≈ 9.61 µM)
MIC50 ([2]; Actinomyces israelii, read-out: Minimal Inhibitory Concentration 50% (MIC50)): 1 µg/mL (≈ 2.4 µM)
MIC50 ([3]; Anaerobiospirillum thomasii, read-out: Minimal Inhibitory Concentration 50% (MIC50)): 0.125 µg/mL (≈ 0.3 µM)
MIC90 ([3]; Anaerobiospirillum thomasii, read-out: Minimal Inhibitory Concentration 90% (MIC90)): 0.25 µg/mL (≈ 0.6 µM)
MIC50 ([4]; Anaerobiospirillum succiniciproducens, read-out: Minimal Inhibitory Concentration 50% (MIC50)): 1 µg/mL (≈ 2.4 µM)
MIC90 [5, 32]: 0.5 µg/mL (≈ 1.2 µM)
MIC50 [5, 33]: 0.03 µg/mL (≈ 0.0721 µM)
MIC90 ([6]; Bacteroides pyogenes, read-out: Minimal Inhibitory Concentration 90% (MIC90)): 0.125 µg/mL (≈ 0.3 µM)
MIC50 ([6]; Bacteroides pyogenes, read-out: Minimal Inhibitory Concentration 50% (MIC50)): 0.06 µg/mL (≈ 0.144 µM)
MIC90 [7, 32]: 4 µg/mL (≈ 9.61 µM)
MIC50 [7, 33]: 0.06 µg/mL (≈ 0.144 µM)
MIC90 [8, 32]: > 8 µg/mL
MIC50 [8, 33]: 0.5 µg/mL (≈ 1.2 µM)
MIC90 ([9]; Clostridium, read-out: Minimal Inhibitory Concentration 90% (MIC90)): 4 µg/mL (≈ 9.61 µM)
MIC50 ([9]; Clostridium, read-out: Minimal Inhibitory Concentration 50% (MIC50)): 4 µg/mL (≈ 9.61 µM)
MIC90 [10, 32]: 8 µg/mL (≈ 19.2 µM)
MIC50 [10, 33]: 0.5 µg/mL (≈ 1.2 µM)
MIC50 ([11]; Thomasclavelia ramosa, read-out: Minimal Inhibitory Concentration 50% (MIC50)): 0.5 µg/mL (≈ 1.2 µM)
MIC90 ([11]; Thomasclavelia ramosa, read-out: Minimal Inhibitory Concentration 90% (MIC90)): 2 µg/mL (≈ 4.8 µM)
MIC50 ([12]; Fusobacterium, GROUP1, read-out: Minimal Inhibitory Concentration 50% (MIC50)): 0.5 µg/mL (≈ 1.2 µM)
MIC90 ([12]; Fusobacterium, GROUP1, read-out: Minimal Inhibitory Concentration 90% (MIC90)): 4 µg/mL (≈ 9.61 µM)
MIC50 ([14]; Fusobacterium russii, read-out: Minimal Inhibitory Concentration 50% (MIC50)): 4 µg/mL (≈ 9.61 µM)
MIC90 ([14]; Fusobacterium russii, read-out: Minimal Inhibitory Concentration 90% (MIC90)): 4 µg/mL (≈ 9.61 µM)
MIC50 [15, 33]: 4 µg/mL (≈ 9.61 µM)
MIC90 [15, 32]: > 8 µg/mL
MIC50 ([16]; Peptoniphilus asaccharolyticus, read-out: Minimal Inhibitory Concentration 50% (MIC50)): 1 µg/mL (≈ 2.4 µM)
MIC90 ([16]; Peptoniphilus asaccharolyticus, read-out: Minimal Inhibitory Concentration 90% (MIC90)): 1 µg/mL (≈ 2.4 µM)
MIC50 ([17]; Finegoldia magna, read-out: Minimal Inhibitory Concentration 50% (MIC50)): 0.125 µg/mL (≈ 0.3 µM)
MIC90 ([17]; Finegoldia magna, read-out: Minimal Inhibitory Concentration 90% (MIC90)): 0.25 µg/mL (≈ 0.6 µM)
MIC50 ([18]; Parvimonas micra, read-out: Minimal Inhibitory Concentration 50% (MIC50)): 0.06 µg/mL (≈ 0.144 µM)
MIC90 ([18]; Parvimonas micra, read-out: Minimal Inhibitory Concentration 90% (MIC90)): 0.06 µg/mL (≈ 0.144 µM)
MIC50 ([19]; Anaerococcus prevotii, read-out: Minimal Inhibitory Concentration 50% (MIC50)): 0.25 µg/mL (≈ 0.6 µM)
MIC50 [20, 34]: 0.25 µg/mL (≈ 0.6 µM)
MIC90 [20, 35]: 0.25 µg/mL (≈ 0.6 µM)
MIC50 ([21]; Porphyromonas canoris, read-out: Minimal Inhibitory Concentration 50% (MIC50)): 0.25 µg/mL (≈ 0.6 µM)
MIC90 ([21]; Porphyromonas canoris, read-out: Minimal Inhibitory Concentration 90% (MIC90)): 0.5 µg/mL (≈ 1.2 µM)
MIC50 ([22]; Porphyromonas gingivalis, read-out: Minimal Inhibitory Concentration 50% (MIC50)): 0.06 µg/mL (≈ 0.144 µM)
MIC90 ([22]; Porphyromonas gingivalis, read-out: Minimal Inhibitory Concentration 90% (MIC90)): 0.06 µg/mL (≈ 0.144 µM)
MIC50 [23, 34]: 0.06 µg/mL (≈ 0.144 µM)
MIC90 [23, 35]: 0.125 µg/mL (≈ 0.3 µM)
MIC50 [24, 34]: 0.25 µg/mL (≈ 0.6 µM)
MIC90 [24, 35]: 1 µg/mL (≈ 2.4 µM)
MIC90 ([25]; Prevotella bivia, read-out: Minimal Inhibitory Concentration 90% (MIC90)): 2 µg/mL (≈ 4.8 µM)
MIC50 ([25]; Prevotella bivia, read-out: Minimal Inhibitory Concentration 50% (MIC50)): 2 µg/mL (≈ 4.8 µM)
MIC90 ([26]; Prevotella, read-out: Minimal Inhibitory Concentration 90% (MIC90)): 2 µg/mL (≈ 4.8 µM)
MIC50 ([26]; Prevotella, read-out: Minimal Inhibitory Concentration 50% (MIC50)): 1 µg/mL (≈ 2.4 µM)
MIC90 ([27]; Prevotella heparinolytica, read-out: Minimal Inhibitory Concentration 90% (MIC90)): 0.25 µg/mL (≈ 0.6 µM)
MIC50 ([27]; Prevotella heparinolytica, read-out: Minimal Inhibitory Concentration 50% (MIC50)): 0.125 µg/mL (≈ 0.3 µM)
MIC90 ([28]; Prevotella intermedia, read-out: Minimal Inhibitory Concentration 90% (MIC90)): 1 µg/mL (≈ 2.4 µM)
MIC50 ([28]; Prevotella intermedia, read-out: Minimal Inhibitory Concentration 50% (MIC50)): 0.5 µg/mL (≈ 1.2 µM)
MIC90 ([29]; Prevotella melaninogenica, read-out: Minimal Inhibitory Concentration 90% (MIC90)): 4 µg/mL (≈ 9.61 µM)
MIC50 ([29]; Prevotella melaninogenica, read-out: Minimal Inhibitory Concentration 50% (MIC50)): 1 µg/mL (≈ 2.4 µM)
MIC90 [31, 32]: > 8 µg/mL
MIC50 [31, 33]: 0.25 µg/mL (≈ 0.6 µM)
SMILES: N[C@@H]1[C@H]2CN(c3nc4c(cc3F)c(=O)c(C(=O)O)cn4-c3ccc(F)cc3F)C[C@@H]12 [Trovafloxacin]
Minimal Inhibitory Concentration Range [1]: 2 to 4 µg/mL
Minimal Inhibitory Concentration Range [2]: 0.5 to 2 µg/mL
Minimal Inhibitory Concentration Range [3]: 0.06 to 0.5 µg/mL
Minimal Inhibitory Concentration Range [4]: 0.5 to 2 µg/mL
Minimal Inhibitory Concentration Range [6]: 0.03 to 0.125 µg/mL
Minimal Inhibitory Concentration Range [9]: 1 to 8 µg/mL
Minimal Inhibitory Concentration Range [11]: 0.25 to 8 µg/mL
Minimal Inhibitory Concentration Range [12]: 0.25 to 4 µg/mL
MIC50 [13, 33]: 4 µg/mL (≈ 9.61 µM)
MIC90 [13, 32]: 4 µg/mL (≈ 9.61 µM)
Minimal Inhibitory Concentration Range [14]: 0.5 to 4 µg/mL
Minimal Inhibitory Concentration Range [16]: 0.5 to 2 µg/mL
Minimal Inhibitory Concentration Range [17]: 0.06 to 0.25 µg/mL
Minimal Inhibitory Concentration Range [18]: 0.03 to 0.125 µg/mL
Minimal Inhibitory Concentration Range [19]: 0.25 to 1 µg/mL
Minimal Inhibitory Concentration Range [20]: 0.03 to 0.25 µg/mL
Minimal Inhibitory Concentration Range [21]: 0.06 to 0.5 µg/mL
Minimal Inhibitory Concentration Range [22]: 0.03 to 0.06 µg/mL
Minimal Inhibitory Concentration Range [23]: 0.03 to 0.125 µg/mL
Minimal Inhibitory Concentration Range [24]: 0.06 to 1 µg/mL
Minimal Inhibitory Concentration Range [25]: 1 to 4 µg/mL
Minimal Inhibitory Concentration Range [26]: 0.25 to 4 µg/mL
Minimal Inhibitory Concentration Range [27]: 0.125 to 0.25 µg/mL
Minimal Inhibitory Concentration Range [28]: 0.06 to 1 µg/mL
Minimal Inhibitory Concentration Range [29]: 0.06 to 8 µg/mL
Minimal Inhibitory Concentration Range [30]: 0.06 to 4 µg/mL
MIC50 ([30]; Prevotella denticola, read-out: Minimal Inhibitory Concentration 50% (MIC50)): 1 µg/mL (≈ 2.4 µM)
